Marks after values point to notes of the source that are not given here.
What was measured:
[1] = system: MCF7; assay: HPLC/MS/MS intracellular levels of MTX in MCF7; type: cell-based; conditions: MCF7, same MTX treatment (24 h, 1 μM)
[2] = system: B16/F10 primary splenic tumors; assay: Primary spleen tumors after intrasplenic injection of luciferase-tagged B16/F10 cells; type: in vivo, mouse
Procedure: C, Luciferase imaging of control and MTX/TMECG-treated mice 12 days post-tumor cell injection. Beetle luciferin (120 mg/kg of mouse) was injected intraperitoneally. The values (means±s.d.) are representative of three independent experiments. *P=0.007; **P=0.002. […] Xenograft tumors treated with DMSO (vehicle) or MTX/TMECG (1 mg/kg/day and 50 mg/kg/day, respectively) over 14-days. […] Representative images taken from two independent experiments (n=5 for each experiment). Scale bar=200 μm and is applicable to both panels. I, B16/F10 melanoma cells, expressing a luciferase reporter, were injected subcutaneously to mice. Mice were divided in two groups (n=7) and treated with vehicle (DMSO) or MTX/TMECG (1 mg/kg/day and 10 mg/kg/day, respectively) over 21-days. Then, tumors were pooled and dissociated. B16/F10 cells extracted from tumors were examined for their sensitivity to the MTX/TMECG combination (1 μM and 10 μM, respectively) using quantification of the luminescence signal (left panel). […] Scale bar refers to all panels. […] Mice were treated with vehicle, MTX (1 mg/kg/day), and/or TMECG (50 mg/kg/day). […] Scale bar refers to all panels.
A, Luciferase imaging of vehicle (control), MTX, and/or TMECG-treated mice 12 days post-tumor cell injection. Firefly luciferin (120 mg/kg of mouse) was injected intraperitoneally. The values are representative of three independent experiments. […] The number of cells was estimated by extrapolation of the experimental luciferase signal to calibration curves. A straight line with a good linear correlation coefficient (0.998) was obtained by plotting luciferase signal vs number of B16/F10-luc2 cells. Treatment of mice (n=6) started 24 hr after tumor induction (Day 1). For all experiments: *p<0.05 with respect to control mice; #p<0.05 with respect to individual MTX or TMECG treatments.

[3] = system: Caco-2; assay: HPLC/MS/MS intracellular levels of MTX in Caco-2; type: cell-based; conditions: Caco-2, same MTX treatment (24 h, 1 μM)
[4] = system: SK-MEL-28 cells; assay: Matrigel Boyden chamber invasion assay, SK-MEL-28; type: cell-based, human; conditions: SK-MEL-28, MTX 48 h, 1 μM
Procedure: FIGS. 1A-J. Methotrexate up-regulates the expression of MITF. A, The MITF rheostat, and the two-step strategy for melanoma therapy: Drug A induces MITF, driving cells to be sensitive to Drug B. B, MTX (1 μM) increases MITF mRNA determined using quantitative and conventional RT-PCR from indicated cell lines. […] C, MTX (1 μM) induces MITF protein assayed by western blotting (WB) (*P<0.05). D, Immunofluorescence of control or MTX-treated (3 h) 501 MEL cells using anti-MITF and DAPI. E, Matrigel assay of control and MTX-treated SKMEL-28 cells (48 h, 1 μM) and IGR39 (72 h, 1 μM) cells. […] Scale bar refers to all panels. F, Chromatin immunoprecipitation on TYR and Pmel17 genes of control and MTX-treated (4 h, 1 μM) SK-MEL-28 cells with qRT-PCR after immunoprecipitation with IgG, or MITF and HDAC3 antibodies. Error bars indicate standard deviations of triplicates; experiment reproduced four times with similar results. G, Scanning electron micrographs of control and MTX-treated (1 μM, 24 h) SK-MEL-28 cells. H, Semiquantitative RT PCR of TYR, TYRP1, Pmel17, MART1, and Rab27a mRNA. […]
Invasion assays were performed using a cell invasion assay kit (BD Bioscience). […] The invading cells were stained and quantified measuring the surface occupied by stained cells with a cell counter plug-in of the Image J software.

[5] = system: SK-MEL-28 cells; assay: Proliferation assay, SK-MEL-28; type: cell-based, human; conditions: SK-MEL-28, MTX alone
Procedure: B, Proliferation assays performed of control or MTX/TMECG-treated (10 μM/1 μM) SK-MEL-28 cells. […] For time course assay MTX (1 μM) and TMECG (10 μM) were used. […] Data were obtained in triplicate in two independent experiments. […] H, effects of MTX/TMECG (1 μM/10 μM) on cell number of indicated cell lines. Error bars show mean±SD. […] Error bars show mean±SD.
Melanoma cell lines of human and mouse origin were obtained from ATCC and maintained in the appropriate culture medium supplemented with 10% FBS and antibiotics. Cell viability was evaluated using the 3-(4,5-dimethylthiazol-2-yl)-2,5-diphenyltetrazolium bromide (MTT) cell proliferation assay.

[6] = system: SK-MEL-28 melanoma cells; assay: HPLC/MS analyses of MTX, TMECG-QM and DHF in whole cell extracts; type: cell-based, human; conditions: SK-MEL-28 whole cell extracts, 24 h, MTX 1 μM and/or TMECG 10 μM
Procedure: By way of example, the present inventors have shown that an active agent, such as MTX, may be used to increase TYR expression, thereby increasing the conversion of a catechin to its quinone methide form. The inventors have undertaken HPLC analyses of MTX, TMECG-QM, and DHF in whole cell extracts of SK-MEL-28 melanoma cells that were subjected to MTX (1 μM) and TMECG (10 μM) individual and combined treatments (see Table 1).

intracellular levels of MTX [1]: 1.3 ± 0.4 pmol/106 cells
intracellular levels of MTX [3]: 0.8 ± 0.3 pmol/106 cells
MTX intracellular concentration [6]: <0.001* pmol/10^6 cells
Compound: CN(Cc1cnc2nc(N)nc(N)c2n1)c1ccc(C(=O)N[C@@H](CCC(=O)O)C(=O)O)cc1 [MTX, methotrexate]
necrotic areas in splenic tumors ([2]; 14 days treatment, MTX 1 mg/kg/day and/or TMECG 50 mg/kg/day): 4%±2%
effect on in vivo luciferase signal ([2]; MTX or TMECG alone, 12 days post-tumor cell injection): around 2 fold
invasiveness [4]: eliminated invasiveness
proliferation [5]: reduced proliferation
